PMC11203978, “Discovery of Di(het)arylmethane and Dibenzoxanthene Derivatives as Potential Anticancer Agents” (International Journal of Molecular Sciences, 2024)
Like-named read-outs stand apart in the source and are kept apart here.

Experiments:
[1] = system: M-HeLa; assay: MTT cytotoxicity, M-HeLa; type: cell-based, human; conditions: Homo sapiens, M-HeLa; MTT, 48 h incubation; read-out: IC50 (µM) Cancer Cell Lines M-HeLa
Source text: (§1) Cells and Materials. For the experiments, we used tumor cell cultures M-HeLa clone 11 (epithelioid carcinoma of the cervix, subline HeLa, clone M-HeLa), HuTu 80, human duodenal adenocarcinoma, Hep-2, human epithelial cells, SH-SY5Y, human neuroblast-like cells, A549, human lung adenocarcinoma, PA-1, human ovarian teratocarcinoma and MCF-7, a human mammary ductal adenocarcinoma from the collection of the Institute of Cytology, Russian Academy of Sciences (St. Petersburg, Russia); human liver cells (Chang liver) were from the collection and the Research Institute of Virology of the Russian Academy of Medical Sciences (Moscow, Russia).
(§2) MTT Assay. The cytotoxic effect on cells was determined using the colorimetric method of cell proliferation—the MTT test. NADP-H-dependent cellular oxidoreductase enzymes can, under certain conditions, reflect the number of viable cells. These enzymes reduce the tetrazolium dye (MTT) 3-(4,5-dimethylthiazol-2-yl)-2,5-diphenyl-tetrazolium bromide to insoluble blue-violet formazan, which crystallizes inside the cell. The amount of formed formazan is proportional to the number of cells with active metabolism. Cells were seeded on a 96-well Nunc plate at a concentration of 5 × 10^3 cells per well in a volume of 100 μL of medium and cultured in a CO2 incubator at 37 °C until a monolayer was formed. After the nutrient medium was removed, 100 µL of the test drug solutions at the given dilutions were added to the wells, which were prepared directly in the nutrient medium with the addition of 5% DMSO to improve solubility. After 48 h of incubation of the cells with the tested compounds, the nutrient medium was removed from the plates and 100 µL of the nutrient medium without serum with MTT at a concentration of 0.5 mg/mL was added and incubated for 4 h at 37 °C. Formazan crystals were added 100 µL of DMSO to each well. Optical density was recorded at 540 nm on an Invitrologic microplate reader (Novosibirsk, Russia). The experiments for all compounds were repeated three times.
(§3) Statistical analysis. The IC50 values were calculated using the MLA–Quest Graph™ IC50 Calculator (AAT Bioquest, Inc., Sunnyvale, CA, USA), 14 February 2022. Statistical analysis was performed with the Mann–Whitney test (p < 0.05). Tabular and graphical data contain averages and standard error.

[2] = system: HuTu 80; assay: MTT cytotoxicity, HuTu 80; type: cell-based, human; conditions: for IC50: MTT, 48 h incubation, read-out: IC50 (µM) Cancer Cell Lines HuTu 80
Source text: as §1, §2, §3

[3] = system: Chang Liver; assay: MTT cytotoxicity, normal Chang liver cells; type: cell-based, human; conditions: Homo sapiens, Chang liver, 48 h incubation, read-out: IC50 (µM) Normal Cell Line Chang Liver
Source text: as §1, §2, §3

[4] = system: Hep-2; assay: MTT cytotoxicity, Hep-2; type: cell-based; conditions: Homo sapiens, read-out: IC50 (µM) Cancer Cell Lines Hep-2
Source text: as §1
(§4) MTT Assay. The cytotoxic effect on cells was determined using the colorimetric method of cell proliferation—the MTT test. NADP-H-dependent cellular oxidoreductase enzymes can, under certain conditions, reflect the number of viable cells. These enzymes reduce the tetrazolium dye (MTT) 3-(4,5-dimethylthiazol-2-yl)-2,5-diphenyl-tetrazolium bromide to insoluble blue-violet formazan, which crystallizes inside the cell. The amount of formed formazan is proportional to the number of cells with active metabolism. […] Optical density was recorded at 540 nm on an Invitrologic microplate reader (Novosibirsk, Russia). […]
(§5) Statistical analysis. The IC50 values were calculated using the MLA–Quest Graph™ IC50 Calculator (AAT Bioquest, Inc., Sunnyvale, CA, USA), 14 February 2022. […]

[5] = system: SH-SY5Y; assay: MTT cytotoxicity, SH-SY5Y; type: cell-based; conditions: Homo sapiens, read-out: IC50 (µM) Cancer Cell Lines SH-SY5Y
Source text: as §1, §4, §5

[6] = system: A549; assay: MTT cytotoxicity, A549; type: cell-based; conditions: Homo sapiens, read-out: IC50 (µM) Cancer Cell Lines A549
Source text: as §1, §4, §5

[7] = system: PA-1; assay: MTT cytotoxicity, PA-1; type: cell-based; conditions: Homo sapiens, read-out: IC50 (µM) Cancer Cell Lines PA-1
Source text: as §1, §4, §5

[8] = system: MCF-7; assay: MTT cytotoxicity, MCF-7; type: cell-based; conditions: Homo sapiens, MCF7, read-out: IC50 (µM) Cancer Cell Lines MCF-7
Source text: as §1, §4, §5

[9] = system: HuTu 80 cells; assay: Induction of apoptosis, flow cytometry (annexin V-Alexa Fluor 647 / propidium iodide); type: cell-based, human; conditions: IC50/2 and IC50, 24 h
Experimental: The ability of the new compounds, proposed as antitumor agents, to induce cell death via apoptosis is a critical feature for their potential use in therapy. The apoptosis-inducing effects of lead compounds were investigated using flow cytometry at IC50/2 and IC50 concentrations on the HuTu 80 cell line (Figure 6A).
(§6) Cell Culture. HuTu 80 cells at 1 × 10^6 cells/well in a final volume of 2 mL were seeded into six-well plates. After 48 h of incubation, various concentrations of lead compounds were added to wells.
Cell Apoptosis Analysis. The cells were harvested at 2000 rpm for 5 min and were then washed twice with ice-cold PBS, and resuspended in binding buffer. Next, the samples were incubated with 5 μL of annexin V-Alexa Fluor 647 (Sigma-Aldrich, St Louis, MO, USA) and 5 μL of propidium iodide for 15 min at room temperature in the dark. Finally, the cells were analyzed using flow cytometry (Guava easy Cyte, MERCK, Rahway, NJ, USA) within 1 h. The experiments were repeated three times.

[10] = system: HuTu 80 cells; assay: Mitochondrial membrane potential, JC-10 flow cytometry; type: cell-based, human; conditions: 24 h treatment, IC50/2 and IC50
Experimental: In this study, we used the fluorescent dye JC-10 from the Mitochondria Membrane Potential Kit (Sigma, St. Louis, MO, USA). Changes in mitochondrial membrane potential under the influence of lead compounds 5a and 6a were determined at IC50/2 and IC50 concentrations on the HuTu 80 cell line. When JC-10 accumulates in the mitochondrial matrix, it forms fluorescent J-aggregates. Their red fluorescence is characteristic for normal cells with high mitochondrial membrane potential. The reduction in mitochondrial membrane potential in apoptotic cells allows JC-10 to escape out of the mitochondria in a monomeric form which has green fluorescence. The mitochondrial membrane potential of HuTu 80 cells is decreased after 24 h treatment with the lead compounds 5a and 6a. The change becomes more pronounced as the concentrations of the tested compounds approach IC50 (Figure 7).
as §6
Mitochondrial Membrane Potential. […] After the cells were rinsed three times and suspended in PBS, the JC-10 fluorescence was observed using flow cytometry (Guava easy Cyte, MERCK, Rahway, NJ, USA).

[11] = system: HuTu 80 cells; assay: Intracellular ROS, CellROX Deep Red flow cytometry; type: cell-based, human; conditions: IC50/2 and IC50
Experimental: The apoptosis via the mitochondrial pathway also increases the production of reactive oxygen species (ROS). As mitochondria itself becomes the target of ROS, an increase in their production disrupts mitochondrial functions and culminates in irreversible cell damage. Therefore, the effect of lead compounds 6a and 5a at IC50/2 and IC50 concentrations on ROS production in HuTu 80 cells was evaluated using flow cytometry. […] Such an effect is not observed for intact cells in the presence of both compounds, indicating an increase in ROS production in cancer tissues.
Detection of Intracellular ROS. HuTU 80 cells were incubated with lead compounds at concentrations of IC50/2 and IC50 for 48 h. ROS generation was investigated using flow cytometry assay and CellROX® Deep Red flow cytometry kit. For this purpose, […] cells were harvested at 2000 rpm for 5 min and then washed twice with ice-cold PBS, followed by resuspension in 0.1 mL of medium without FBS, to which was added 0.2 μL of CellROX® Deep Red, which was followed by incubation at 37 °C for 30 min. The cells were washed three times and suspended in PBS. After that, the production of ROS in the cells was immediately monitored using flow cytometer (Guava easy Cyte, MERCK, Rahway, NJ, USA).

Cc1cc(O)c(C(CCNC(=O)CCl)c2c(O)cc(C)oc2=O)c(=O)o1 [Compound 5a]
IC50 [1]: 56.2 ± 4.7 µM | IC50 ([2]; Homo sapiens, HuTu80, 48 h): 1.7 µM | times more effective / more cytotoxic than the reference drug sorafenib ([2]; HuTu 80): 1.7 | IC50 [2]: 1.9 ± 0.2 µM | IC50 [3]: 139 ± 11 µM | IC50 [4]: 65.8 ± 1.18 µM | IC50 [5]: 75.8 ± 2.84 µM | IC50 [6]: 82.1 ± 3.56 µM | IC50 [7]: 80.2 ± 4.05 µM | IC50 [8]: 85.6 ± 3.12 µM | apoptosis-inducing effect (in words) [9]: apoptotic effects increase at the early apoptosis stage | mitochondrial membrane potential (in words) [10]: decreased | ROS production, CellROX Deep Red fluorescence intensity (in words) [11]: significant reliable increase
